# Key:
# Assay type in all cases: physicochemical
# [1] = Stability study of influence factors (high temperature, high humidity, light); details: for Stability under influence factors (conclusion in words): photostability, high humidity and high temperature study
# Procedure: Stability study on the mentioned polymorph in Example 1 was performed in high temperature, high humidity and light conditions to study the influence factors.
# [2] = Observation of electrostatic phenomenon of the crystal; details: compared with the crystal disclosed
# Procedure: Added 33 ml of isopropanol and 66 ml of n-heptane in the remainder (allisartan isoproxil crude), heated to 76° C. and stirred for 2 h, then cooled to 60° C. and stirred for 1 h. Cooled the system slowly to 0° C., continued to stir for 3 h. Filtered, and washed the filter cake with n-heptane.
# [3] = Bulk density by cylinder knocking method
# [4] = Repose angle by fixed funnel method (flowability)
# Source text: Repeated the method of patent CN200710094131.0 to obtain fine loose allisartan isoproxil powder (referred to as literature crystal), measured the response angle by fixed funnel method.
# [5] = high humidity test 25° C., RH 92.5%, day 0
# [6] = high humidity test 25° C., RH 92.5%, day 5
# [7] = high humidity test 25° C., RH 92.5%, day 10
# [8] = high temperature test 60° C., day 0
# [9] = high temperature test 60° C., day 5
# [10] = high temperature test 60° C., day 10
# [11] = photostability test 4500lx ± 500lx, day 0
# [12] = photostability test 4500lx ± 500lx, day 5
# [13] = photostability test 4500lx ± 500lx, day 10
smiles,measurement,setting,value
"CCCCc1nc(Cl)c(C(=O)OCOC(=O)OC(C)C)n1Cc1ccc(-c2ccccc2-c2nnn[nH]2)cc1 [Example 1, 2-butyl-4-chloro-1-[2′-(1H-tetrazol-5-yl)-1, 1′-biphenyl-methyl]-imidazole-5-carboxylic acid, 1-[(isopropoxy)-carbonyloxy]methyl ester]",Sum of impurities,[1]; [5],0.39%
same,Weight gained,[1]; [5],0%
same,Sum of impurities,[1]; [6],0.37%
same,Weight gained,[1]; [6],0%
same,Sum of impurities,[1]; [7],0.38%
same,Weight gained,[1]; [7],0%
same,Sum of impurities,[1]; [8],0.39%
same,Weight gained,[1]; [8],0%
same,Sum of impurities,[1]; [9],0.39%
same,Weight gained,[1]; [9],0%
same,Sum of impurities,[1]; [10],0.39%
same,Weight gained,[1]; [10],0%
same,Sum of impurities,[1]; [11],0.39%
same,Weight gained,[1]; [11],0%
same,Sum of impurities,[1]; [12],0.37%
same,Weight gained,[1]; [12],0%
same,Sum of impurities,[1]; [13],0.38%
same,Weight gained,[1]; [13],0%
same,Stability under influence factors (conclusion in words),[1],remained stable
same,Electrostatic phenomenon,[2],does not have obvious electrostatic phenomenon
same,Bulk density,[3],0.75 g/mL
same,Repose angle,[4],34-36 °
"CCCCc1nc(Cl)c(C(=O)OCOC(=O)OC(C)C)n1Cc1ccc(-c2ccccc2-c2nnn[nH]2)cc1 [Example 2, 2-butyl-4-chloro-1-[2′-(1H-tetrazol-5-yl)-1, 1′-biphenyl-methyl]-imidazole-5-carboxylic acid, 1-[(isopropoxy)-carbonyloxy]methyl ester]",Stability under influence factors (conclusion in words),[1],same result with that of Example 1
same,Bulk density,[3],0.73 g/mL
same,Repose angle,[4],35-37 °
"CCCCc1nc(Cl)c(C(=O)OCOC(=O)OC(C)C)n1Cc1ccc(-c2ccccc2-c2nnn[nH]2)cc1 [Example 3, 2-butyl-4-chloro-1-[2′-(1H-tetrazol-5-yl)-1, 1′-biphenyl-methyl]-imidazole-5-carboxylic acid, 1-[(isopropoxy)-carbonyloxy]methyl ester]",Stability under influence factors (conclusion in words),[1],same result with that of Example 1
same,Bulk density,[3],0.77 g/mL
same,Repose angle,[4],33-35 °
"CCCCc1nc(Cl)c(C(=O)OCOC(=O)OC(C)C)n1Cc1ccc(-c2ccccc2-c2nnn[nH]2)cc1 [Example 4, 2-butyl-4-chloro-1-[2′-(1H-tetrazol-5-yl)-1, 1′-biphenyl-methyl]-imidazole-5-carboxylic acid, 1-[(isopropoxy)-carbonyloxy]methyl ester]",Stability under influence factors (conclusion in words),[1],same result with that of Example 1
same,Bulk density,[3],0.77 g/mL
same,Repose angle,[4],35-38 °
"CCCCc1nc(Cl)c(C(=O)OCOC(=O)OC(C)C)n1Cc1ccc(-c2ccccc2-c2nnn[nH]2)cc1 [Literature crystal, 2-butyl-4-chloro-1-[2′-(1H-tetrazol-5-yl)-1, 1′-biphenyl-methyl]-imidazole-5-carboxylic acid, 1-[(isopropoxy)-carbonyloxy]methyl ester, reference compound]",Bulk density,[3],0.51 g/mL
same,Repose angle,[4],48-53 °
